Laboratory results taken from patent US10106582B2, “Complex-formation-modulating agents and uses therefor” (Factor Therapeutics Limited, priority 2012, dated 2018).

Experiments:
[1] = system: MCF-7 cells; test: Transwell migration assay, IGF-I+IGFBP-5+VN trimeric complex-stimulated MCF-7 cell migration; assay type: cell-based, human
Text: Two motifs (motifs 1 and 8) within native VN, deemed potentially significant in supporting the binding of IGF-II, IGFBP-3 and IGFBP-5, were identified as outlined in the previous section. After preliminary in silico analyses motif 8 (J4-7) was deemed as potentially the most significant region within native VN supporting binding interactions of all the three IGF-II, IGFBP-3 and IGFBP-5 proteins and was chosen for the initial analyses. The VN-peptide covering the sequences of motif 8 was designed such that it covered all the 3AA frameshift sets that contributed to a positive spot within the motif 8 (see, FIG. 3 and Table 7). The sequence of this peptide is RVNLRTRRVDTVDPPYPRS [SEQ ID NO:100] and is designated P8. […] The sequence of that peptide is […] [SEQ ID NO:86] and is designated P7. […] The functional effects of these peptides on IGF-I:IGFBP:VN-stimulated breast cancer cell migration were investigated using Transwell® assays. Transwells® were pre-bound with VN, either alone or in combination with IGF-I and IGFBP-5 (TRI). Treatment with TRI supplemented with increasing concentrations of peptides P7 and/or P8 were assayed. TRI supplemented with Anlg or Neg peptide were included as positive and negative controls of migration inhibition, respectively. All unbound proteins were removed with washing and MCF-7 cell migration was assessed over 15 hours.
The Transwell® inserts were prepared by pre-binding the lower chamber and the under-surface of the 8-μm pore membranes with proteins as described below. For all 2D functional assays described throughout this study, including Transwell® the treatments for the pre-binding steps were VN, IGF-I+IGFBP-5+VN (TRI) complex, either alone or in combination with respective controls or VN-peptides. The concentrations of the proteins added into the culture wells were VN, 1 μg/mL; IGF-I, 30 ng/mL and IGFBP-5, 90 ng/mL, unless otherwise stated. The concentration of VN-peptides used are indicated where appropriate.
Optimal IGF-I:IGFBP-5:VN-mediated attachment and migration of MCF-7 cells in multiwell plates is obtained by pre-binding human native-IGF-I and/or IGFBP-5 and VN at concentrations of 30 ng/mL, 90 ng/mL and 1 μg/mL per well, respectively, to the lower chambers and under surfaces of Transwells®. […] For Anlg, concentrations varying from 30 ng/mL to 300 ng/mL were used.
Transwells® were prepared by pre-binding the test proteins, either alone or in combinations, to the lower chambers and under-surfaces of Transwells® following procedures previously described (Kricker et al., 2003). Briefly, 0.5 mL DMEM/F12 serum-free phenol-red free medium (SFM) containing 1 μg/mL VN was added to the lower chambers of 24-well, 8-μm pore Transwell® plates and incubated for 3 hours at 37° C. Unbound VN was removed and the wells were washed twice with 0.5 mL SFM+0.5% BSA following which 0.5 mL of SFM+0.5% BSA was placed in the lower chamber to block surfaces with no protein bound. To pre-bind growth factors, 0.5 mL SFM+0.05% BSA containing native IGF-I (30 ng/mL), IGFBP-5 (90 ng/mL) or Anlg, either alone or in combination, were added to the lower chambers of the Transwells® and incubated overnight at 4° C. The solution containing unbound growth factors was removed and the wells were washed twice with SFM+0.05% BSA and replaced with 0.5 mL of SFM+0.05% BSA. Throughout the pre-binding procedure care was taken to keep the upper surface of the Transwell® inserts dry.
Migration assays were essentially performed following protocols described previously in Leavesley et al 1993, J Cell Biol. 121:163-70. The cells in culture flasks were split 1:1, 24 hours prior to performing the migration assay. The cells were serum-starved for 4 hours and a cell suspension containing 6×10^4 cells in 200 μL SFM+0.05% BSA was seeded onto the upper-surface of the pre-coated Transwell® inserts and incubated for 15 hours at 37° C., 5% CO2 (refer to above for proteins pre-bound and concentrations used). […]

[2] = system: MCF-7 cells; test: 3D Matrigel growth assay of MCF-7 tumor spheroids; assay type: cell-based, human
Text: FIG. 7 is a photographic and graphical representation showing MCF-7 3D cell growth in response to peptide antagonists. MCF-7 cells suspended in media containing 1% serum and 2.5% Matrigel (Matrigel media) were layered onto a thin layer of 100% Matrigel. Spheroids were allowed to form in Matrigel media containing VN, TRI or TRI supplemented with peptides P7 and P8. Cells were allowed to grow for 14 days with media+proteins changed every 3 days. (A) Phase contrast and fluorescence microscopy was used to obtain images of the spheroids treated with 90 nM P7, P8 or P7+8. The fluorescent images were subjected to analysis using Image J to calculate spheroid sizes. The images post-ImageJ analyses are depicted in the bottom panel of A. All the images depicted are representative images obtained from triplicate experiments with treatments tested in duplicates in each replicate experiment. Scale bar denotes 100 μm. (B) Scatter plot depicts mean spheroid size (μm^2) at Day 14 for each treatment, calculated using Image-J (90 nM peptide treatments are depicted here). Each data point in the graph is the average size of all spheroids present in a single field of view at 40× magnification. ** denotes p<0.01 and * denotes p<0.05. (C) To measure cell viability/proliferation the 3D culture was treated on Day 14 with 5% Alamar Blue dye for 4 hours and fluorescence intensities were recorded. Error bars indicate SEM. ** denotes p<0.01 Vs TRI and * denotes p<0.05 Vs TRI. The experiment was repeated twice with treatments tested in duplicate wells in each replicate experiment. TRI=IGF-I:IGFBP-5:VN trimeric complex (equimolar at 10 nM concentrations).
To closely mimic in vivo conditions, cells were grown in a 3D matrix (Matrigel) closely resembling in vivo extracellular matrix physiology. MCF-7 cells suspended in growth media containing 1% serum and 2.5% Matrigel (Matrigel media) were layered onto a thin layer of 100% Matrigel. Tumor spheroids were allowed to form for 3 days after which spent media was replenished with Matrigel media containing VN only, trimeric complex, or trimeric complex supplemented with increasing concentrations of peptides (P7, P8 or P7+P8). Cells were allowed to grow for additional 11 days with media+proteins changed every 3 days. Spheroid morphology was assessed using phase-contrast microscopy and cell viability was measured using AlamarBlue, a fluorescent metabolic dye.

| Sequence | MCF-7 cell migration ([1]; TRI supplemented with non-binding peptide, concentration not given, 15 hours) | Effect on TRI-stimulated MCF-7 cell migration ([1]; non-binding peptide supplemented into TRI, concentration not given) | MCF-7 cell migration ([1]; TRI supplemented with peptide at 3× molar concentration of IGFBP-5 (43 ng/mL P7, 38 ng/mL P8), 15 hours) | MCF-7 cell migration ([1]; TRI supplemented with peptide at 9× molar concentration of IGFBP-5, 15 hours) | TRI-stimulated cell viability (AlamarBlue) ([2]; 90 nM peptide, Day 14, 3D Matrigel culture) | Size of TRI-treated tumor spheroids (phase-contrast microscopy) ([2]; increasing concentrations of peptides, Matrigel 3D culture, 14 days) |
| --- | --- | --- | --- | --- | --- | --- |
| KTYLFKGSQYWRFEDG [Neg, reference compound] | 276±24 % of VN | did not affect | – | – | – | – |
| LFSSEESNLGANNYDDYRMDWL (listed as Homo sapiens) [Peptide P7, human VN motif 7 mimic] | – | – | 94.7±0.2 % of VN | 146±14 % of VN | significantly inhibit | decrease with increasing concentrations |
